# Reference: patent US9688661B2, “Substituted pyrroles active as kinases inhibitors” (NERVIANO MEDICAL SCIENCES S.R.L., priority 2012, dated 2017)
# Experiments:
# [1] = tested on: JAK2 independent human chronic myelogenous leukaemia cell line K562; assay: Cell proliferation assay, K562; assay type: cell-based; settings: K562 cells, 72 hours, CellTiter-Glo, read-out: IC50 K-562
# JAK1 kinase domain = JAK1 kinase domain (Homo sapiens (Human), UniProt P23458); assay: Biochemical assay for inhibitors of JAK kinase activity, JAK1; settings: preactivated JAK1 kinase domain 2.5 nM, 100 μM ATP
# Procedure: (§1) Specific JAK2, JAK1 or JAK3 peptide substrates are trans-phosphorylated by JAK kinases in the presence of ATP traced with 33P-γ-ATP. At the end of the phosphorylation reaction, the unreacted ATP, cold and radioactive, is captured by an excess of dowex ion exchange resin that eventually settles by gravity to the bottom of the reaction plate. The supernatant is subsequently withdrawn and transferred into a counting plate that is then evaluated by β-counting.
# (§2) 500 g of wet resin (SIGMA, custom prepared resin DOWEX 1×8 200-400 mesh, 2.5 Kg) are weighed out and diluted 2 to 1 in 150 mM sodium formate, pH 3.00. The resin is allowed to settle down overnight and then the supernatant is discarded. After three washes as above over a couple of days, the resin is allowed to settle and two volumes (with respect to the resin volume) of 150 mM sodium formate buffer are added.
# (§3) Kinase buffer was composed of 50 mM HEPES pH 7.5 containing 10 mM MgCl2, 2.5 mM DTT, 10 μM Na3VO4 and 0.2 mg/mL BSA.
# Assays were performed with the JAK1 kinase domain (residues 861-1152 of the 1154 amino acid long full-length sequence, accession number P23458 of UniProtKB/Swiss-Prot database).
# The JAK1 kinase domain was preactivated with ATP for 1 h at 28° C. in order to obtain a linear kinetic.
# (§4) The peptidic substrate was purchased from American Peptide Company (Sunnyvale, Calif.).
# (§5) Data are analyzed by Symix Assay Explorer software (Symix Technologies Inc.) that provides sigmoidal fitting algorithm of the 8 points dilutions curves for IC50 determination.
# [2] = tested on: JAK2 dependent human megakaryoblastic leukemia cell line SET-2; assay: Cell proliferation assay, SET-2; assay type: cell-based; settings: SET-2 cells, 72 hours, CellTiter-Glo
# JAK2 kinase domain = JAK2 kinase domain (Homo sapiens (Human), UniProt O60674); assay: Biochemical assay for inhibitors of JAK kinase activity, JAK2; settings: JAK2 kinase domain 1 nM, 60 μM ATP
# Procedure: as §1, §2, §3, §4, §5
# TYK2 kinase domain = TYK2 kinase domain (Homo sapiens (Human), UniProt P29597); assay: Biochemical assay for inhibitors of JAK kinase activity, TYK2; settings: TYK2 kinase domain 3 nM, 31 μM ATP
# Procedure: as §1, §2, §3, §4, §5
# JAK1 kinase domain, sequence (P23458 861-1152): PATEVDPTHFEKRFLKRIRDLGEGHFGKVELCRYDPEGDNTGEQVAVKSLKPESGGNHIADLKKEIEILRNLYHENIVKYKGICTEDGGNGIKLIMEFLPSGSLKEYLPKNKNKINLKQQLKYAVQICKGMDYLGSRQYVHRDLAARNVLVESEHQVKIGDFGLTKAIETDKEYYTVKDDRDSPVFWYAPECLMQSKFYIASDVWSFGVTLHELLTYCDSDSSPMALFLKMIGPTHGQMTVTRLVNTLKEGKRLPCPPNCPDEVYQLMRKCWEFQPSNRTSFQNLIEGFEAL
# JAK2 kinase domain, sequence (O60674 849-1124): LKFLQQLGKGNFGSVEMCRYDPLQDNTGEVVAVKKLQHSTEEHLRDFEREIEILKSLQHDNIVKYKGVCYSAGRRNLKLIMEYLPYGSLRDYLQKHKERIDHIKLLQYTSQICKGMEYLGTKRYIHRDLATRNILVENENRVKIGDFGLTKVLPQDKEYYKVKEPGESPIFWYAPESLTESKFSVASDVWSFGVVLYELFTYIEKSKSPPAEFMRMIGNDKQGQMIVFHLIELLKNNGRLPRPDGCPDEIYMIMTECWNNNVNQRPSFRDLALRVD
# TYK2 kinase domain, sequence (P29597 833-1187): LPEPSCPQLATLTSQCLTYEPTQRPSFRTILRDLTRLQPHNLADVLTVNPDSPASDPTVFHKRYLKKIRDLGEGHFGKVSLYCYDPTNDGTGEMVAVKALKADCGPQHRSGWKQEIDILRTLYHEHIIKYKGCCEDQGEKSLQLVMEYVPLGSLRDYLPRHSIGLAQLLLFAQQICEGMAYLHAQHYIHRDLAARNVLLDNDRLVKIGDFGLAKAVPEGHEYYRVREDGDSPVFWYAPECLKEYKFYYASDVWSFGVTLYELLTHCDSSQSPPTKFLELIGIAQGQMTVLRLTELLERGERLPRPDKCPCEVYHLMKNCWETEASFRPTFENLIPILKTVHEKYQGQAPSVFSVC
IC50 [1] [nM],IC50 (JAK1 kinase domain) [nM],IC50 [2] [nM],IC50 (JAK2 kinase domain) [nM],IC50 (TYK2 kinase domain) [nM],SMILES
7230,141,1270,23,–,"CCc1ccc(Cl)cc1-c1[nH]c(-c2cc(N)ncn2)cc1C#N [compd 9, 5-(6-Aminopyrimidin-4-yl)-2-(5-chloro-2-ethylphenyl)-1H-pyrrole-3-carbonitrile]"
> 10000,869,3070,66,–,"CCc1ccc(Cl)cc1-n1cc(-c2cc(N)ncn2)cc1C#N [compd 47, 4-(6-Aminopyrimidin-4-yl)-1-(5-chloro-2-ethylphenyl)-1H-pyrrole-2-carbonitrile]"
1890,15,1380,4,13,"Cc1ccc(Cl)cc1-n1cc(-c2ncnc3[nH]ccc23)cc1C#N [compd 63, 1-(5-Chloro-2-methylphenyl)-4-(7H-pyrrolo[2,3-d]pyrimidin-4-yl)-1H-pyrrole-2-carbonitrile]"
6610,17,510,7,38,"N#Cc1cc(-c2ncnc3[nH]ccc23)cn1-c1cc(C(F)(F)F)ccc1Cl [compd 72, 1-[2-Chloro-5-(trifluoromethyl)phenyl]-4-(7H-pyrrolo[2,3-d]pyrimidin-4-yl)-1H-pyrrole-2-carbonitrile]"
3760,33,460,5,23,"Cc1ccc(Cl)cc1-c1cc(-c2ncnc3[nH]ccc23)[nH]c1C(N)=O [compd 123, 3-(5-Chloro-2-methylphenyl)-5-(7H-pyrrolo[2,3-d]pyrimidin-4-yl)-1H-pyrrole-2-carboxamide]"
> 10000,38,690,9,70,"CNC(=O)c1[nH]c(-c2ncnc3[nH]ccc23)cc1-c1cc(Cl)ccc1C [compd 129, 3-(5-Chloro-2-methylphenyl)-N-methyl-5-(7H-pyrrolo[2,3-d]pyrimidin-4-yl)-1H-pyrrole-2-carboxamide]"
2800,25,480,9,87,"CCc1ccc(C(F)(F)F)cc1-c1cc(-c2ncnc3[nH]ccc23)[nH]c1C(=O)NC [compd 131, 3-[2-Ethyl-5-(trifluoromethyl)phenyl]-N-methyl-5-(7H-pyrrolo[2,3-d]pyrimidin-4-yl)-1H-pyrrole-2-carboxamide]"
> 10000,139,890,19,–,"Cc1ccc(Cl)cc1-c1[nH]c(-c2cc(N)ncn2)cc1C(N)=O [compd 189, 5-(6-Aminopyrimidin-4-yl)-2-(5-chloro-2-methylphenyl)-1H-pyrrole-3-carboxamide]"
> 10000,52,750,22,94,"CNc1cc(-c2cc(C(N)=O)c(-c3cc(Cl)ccc3C)[nH]2)ncn1 [compd 190, 2-(5-Chloro-2-methylphenyl)-5-[6-(methylamino)pyrimidin-4-yl]-1H-pyrrole-3-carboxamide]"
> 10000,20,690,1,7,"Cc1ccc(Cl)cc1-c1[nH]c(-c2ncnc3[nH]ccc23)cc1C(N)=O [compd 191, 2-(5-Chloro-2-methylphenyl)-5-(7H-pyrrolo[2,3-d]pyrimidin-4-yl)-1H-pyrrole-3-carboxamide]"
> 10000,111,860,13,51,"Cc1ccc(Cl)cc1-c1[nH]c(-c2ccnc3[nH]ccc23)cc1C(N)=O [compd 192, 2-(5-Chloro-2-methylphenyl)-5-(1H-pyrrolo[2,3-b]pyridin-4-yl)-1H-pyrrole-3-carboxamide]"
> 10000,167,450,12,–,"NC(=O)c1cc(-c2cc(N)ncn2)[nH]c1-c1cc(C(F)(F)F)ccc1Cl [compd 204, 5-(6-Aminopyrimidin-4-yl)-2-[2-chloro-5-(trifluoromethyl)phenyl]-1H-pyrrole-3-carboxamide]"
> 10000,104,650,19,–,"CNc1cc(-c2cc(C(N)=O)c(-c3cc(C(F)(F)F)ccc3Cl)[nH]2)ncn1 [compd 205, 2-[2-Chloro-5-(trifluoromethyl)phenyl]-5-[6-(methylamino)pyrimidin-4-yl]-1H-pyrrole-3-carboxamide]"
> 10000,140,700,19,–,"NC(=O)c1cc(-c2ncnc3[nH]ccc23)[nH]c1-c1cc(C(F)(F)F)ccc1Cl [compd 206, 2-[2-Chloro-5-(trifluoromethyl)phenyl]-5-(7H-pyrrolo[2,3-d]pyrimidin-4-yl)-1H-pyrrole-3-carboxamide]"
> 10000,108,590,11,–,"Cc1ccc(C(F)(F)F)cc1-c1[nH]c(-c2cc(N)ncn2)cc1C(N)=O [compd 211, 5-(6-Aminopyrimidin-4-yl)-2-[2-methyl-5-(trifluoromethyl)phenyl]-1H-pyrrole-3-carboxamide]"
> 10000,48,460,21,–,"CNc1cc(-c2cc(C(N)=O)c(-c3cc(C(F)(F)F)ccc3C)[nH]2)ncn1 [compd 212, 5-[6-(Methylamino)pyrimidin-4-yl]-2-[2-methyl-5-(trifluoromethyl)phenyl]-1H-pyrrole-3-carboxamide]"
> 10000,27,290,8,73,"Cc1ccc(C(F)(F)F)cc1-c1[nH]c(-c2ncnc3[nH]ccc23)cc1C(N)=O [compd 213, 2-[2-Methyl-5-(trifluoromethyl)phenyl]-5-(7H-pyrrolo[2,3-d]pyrimidin-4-yl)-1H-pyrrole-3-carboxamide]"
6240,33,260,4,54,"CCc1ccc(C(F)(F)F)cc1-c1[nH]c(-c2cc(N)ncn2)cc1C(N)=O [compd 218, 5-(6-Aminopyrimidin-4-yl)-2-[2-ethyl-5-(trifluoromethyl)phenyl]-1H-pyrrole-3-carboxamide]"
> 10000,595,2360,73,–,"Cc1ccc(Cl)cc1-n1cc(-c2cc(N)ncn2)cc1C(N)=O [compd 227, 4-(6-Aminopyrimidin-4-yl)-1-(5-chloro-2-methylphenyl)-1H-pyrrole-2-carboxamide]"
> 10000,315,1680,33,69,"Cc1ccc(Cl)cc1-n1cc(-c2ncnc3[nH]ncc23)cc1C(N)=O [compd 232, 1-(5-Chloro-2-methylphenyl)-4-(1H-pyrazolo[3,4-d]pyrimidin-4-yl)-1H-pyrrole-2-carboxamide]"
–,79,–,–,32,"CCc1ccc(Cl)cc1-n1cc(-c2cc(N)ncn2)cc1C(N)=O [compd 235, 4-(6-Aminopyrimidin-4-yl)-1-(5-chloro-2-ethylphenyl)-1H-pyrrole-2-carboxamide]"
> 10000,1080,1570,71,–,"NC(=O)c1cc(-c2cc(N)ncn2)cn1-c1cc(C(F)(F)F)ccc1Cl [compd 242, 4-(6-Aminopyrimidin-4-yl)-1-[2-chloro-5-(trifluoromethyl)phenyl]-1H-pyrrole-2-carboxamide]"
> 10000,386,1230,27,–,"NC(=O)c1cc(-c2ncnc3[nH]cnc23)cn1-c1cc(C(F)(F)F)ccc1Cl [compd 245, 1-[2-Chloro-5-(trifluoromethyl)phenyl]-4-(9H-purin-6-yl)-1H-pyrrole-2-carboxamide]"
–,991,–,–,–,"NC(=O)c1cc(-c2ncnn3cccc23)cn1-c1cc(C(F)(F)F)ccc1Cl [compd 247, 1-[2-Chloro-5-(trifluoromethyl)phenyl]-4-(pyrrolo[2,1-f][1,2,4]triazin-4-yl)-1H-pyrrole-2-carboxamide]"
3760,–,140,1,12,"CCc1ccc(Cl)cc1-c1[nH]c(-c2ncnc3[nH]ccc23)cc1C(=O)NC [compd 303, 2-(5-Chloro-2-ethylphenyl)-N-methyl-5-(7H-pyrrolo[2,3-d]pyrimidin-4-yl)-1H-pyrrole-3-carboxamide]"
> 10000,63,350,25,–,"CNC(=O)c1cc(-c2ncnc3[nH]ccc23)[nH]c1-c1cc(C(F)(F)F)ccc1C [compd 318, 2-[2-Methyl-5-(trifluoromethyl)phenyl]-N-methyl-5-(7H-pyrrolo[2,3-d]pyrimidin-4-yl)-1H-pyrrole-3-carboxamide]"
